The source of these data is ChEMBL document CHEMBL1201862, “PubChem BioAssay data set” (2004).

Active and inactive are the calls of the source. For most assays here, no stated cut-off is given here; in the data, actives have a measured EC50 and inactives only a lower limit.

Experiment [1] in a line: intracellular Trypanosoma cruzi inhibitors in host cells – cell-based, plate reader, cherry-pick samples, set 3, dose response (AID 651818).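 Further: compounds incubated with infected cells for about four days.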 It is filed as functional.
Experiment [2] has as its target Heat shock protein HSP 90-alpha (Homo sapiens, UniProt P07900). The experiment is classed as functional, organism-based.
The target in experiment [3] is T1, Heat shock factor protein 1 (Mus musculus, UniProt P38532).
T1 sequence (P38532 whole entry): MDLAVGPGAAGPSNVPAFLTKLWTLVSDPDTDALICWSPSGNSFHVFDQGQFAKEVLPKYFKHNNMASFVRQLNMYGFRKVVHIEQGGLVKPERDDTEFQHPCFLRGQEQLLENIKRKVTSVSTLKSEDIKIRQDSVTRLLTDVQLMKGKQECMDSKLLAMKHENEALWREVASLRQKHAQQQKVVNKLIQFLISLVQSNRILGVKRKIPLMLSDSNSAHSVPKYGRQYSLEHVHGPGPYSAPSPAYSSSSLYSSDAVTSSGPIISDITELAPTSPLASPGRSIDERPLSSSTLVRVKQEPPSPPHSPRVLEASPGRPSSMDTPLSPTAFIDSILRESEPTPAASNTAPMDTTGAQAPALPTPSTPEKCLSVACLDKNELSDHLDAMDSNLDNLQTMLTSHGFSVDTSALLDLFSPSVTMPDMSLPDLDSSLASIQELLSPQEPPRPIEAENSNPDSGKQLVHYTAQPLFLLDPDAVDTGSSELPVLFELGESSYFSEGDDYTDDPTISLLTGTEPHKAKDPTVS
Kind of experiment: HSF1 potentiators in luciferase reporter cells, confirmation, cell-based, NIH3T3, luminescence, dose retest (AID 435004).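 Further: stress induced by proteasome inhibitor MG132 added 30 min after compound; luciferase reporter driven by HSF1 response element in NIH3T3 cells; actives raise luminescence as potentiators of the MG132 stress response.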 The experiment is classed as functional. (In general: A reporter such as luciferase makes a cellular process visible.)

The next experiment relates to INS1. Kind of experiment: beta cell apoptosis inhibitors, cytokine rescue, dose response, luminescence, retest (AID 449756).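 Further: cell death triggered by IL-1 beta plus TNF-alpha plus IFN-gamma mixture; protective hits raise ATP signal compared with cytokine alone wells.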 It is filed as functional, cell-based. The conditions noted are these: Rattus norvegicus.
Experiment [4] concerns BJ. Kind of experiment: cells. It is filed as functional, cell-based. To be noted: Homo sapiens.
Experiment [5] deals with BJ. Kind of experiment: cytotoxicity toward BJ-TERT-LT-ST fibroblasts, dose response, cell-based, RAS-independent, luminescence (AID 1935).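 Further: BJ fibroblasts immortalized with TERT plus LT and ST oncogenes.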 It is filed as functional. The conditions noted are these: Homo sapiens.
Experiment [6] relates to BJ. Kind of experiment: cytotoxicity toward BJ-TERT fibroblasts, dose response, cell-based, RAS-independent, luminescence (AID 1933). It is filed as functional. To be noted: Homo sapiens.
The nature of experiment [7]: cytotoxicity toward DRD oncogenic fibroblasts, dose response, cell-based, non-viral oncogenic, luminescence (AID 1934). To be noted: Homo sapiens. It is filed as functional.
For experiment [8], the target named is Luciferin 4-monooxygenase (Photinus pyralis, UniProt P08659). Kind of experiment: firefly luciferase enzyme inhibitors, dose response, biochemical, luminescence (AID 1891).
Experiment [9] is described as follows: Luminescence Cell-Based Dose Confirmation HTS to Identify Inhibitors of Platelet Dense Granule Release. [Related pubchem assays: 1663 (Primary HTS), 1678 (Summary of Project)]. It is filed as functional.
For experiment [10], the target named is T2, Ubiquitin-conjugating enzyme E2 N (Homo sapiens, UniProt P61088).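 Further: Dose-response confirmation in a TR-FRET assay detecting UBC13-driven polyubiquitin chain formation, inhibition measured.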
T2 sequence (P61088 whole entry): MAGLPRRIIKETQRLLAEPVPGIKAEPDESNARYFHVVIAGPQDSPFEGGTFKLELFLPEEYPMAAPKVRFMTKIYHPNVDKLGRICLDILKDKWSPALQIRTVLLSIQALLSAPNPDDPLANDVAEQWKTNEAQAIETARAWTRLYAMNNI
The experiment is classed as functional.

Experiment [11] in a line: C. albicans growth with fluconazole, confirmation, fluorescence, retest (AID 2467). It is filed as functional, cell-based.
Experiment [12] is described as follows: NIH-3T3 fibroblast cytotoxicity, dose response, cytotoxicity control, cell-based, fluorescence, Alamar Blue, secondary assay (AID 2327).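 Further: NIH-3T3 mouse fibroblasts cultured with fluconazole at 8 µg/mL.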 It is filed as functional. (Resazurin is reduced to fluorescent resorufin, in cell work by metabolically active cells.)
The next experiment addresses Large T antigen (Simian virus 40, UniProt P03070). The experiment is classed as functional, Betapolyomavirus macacae.
For experiment [13], the target named is T3, Zinc finger protein mex-5 (Caenorhabditis elegans, UniProt Q9XUB2).
T3 sequence (Q9XUB2 whole entry): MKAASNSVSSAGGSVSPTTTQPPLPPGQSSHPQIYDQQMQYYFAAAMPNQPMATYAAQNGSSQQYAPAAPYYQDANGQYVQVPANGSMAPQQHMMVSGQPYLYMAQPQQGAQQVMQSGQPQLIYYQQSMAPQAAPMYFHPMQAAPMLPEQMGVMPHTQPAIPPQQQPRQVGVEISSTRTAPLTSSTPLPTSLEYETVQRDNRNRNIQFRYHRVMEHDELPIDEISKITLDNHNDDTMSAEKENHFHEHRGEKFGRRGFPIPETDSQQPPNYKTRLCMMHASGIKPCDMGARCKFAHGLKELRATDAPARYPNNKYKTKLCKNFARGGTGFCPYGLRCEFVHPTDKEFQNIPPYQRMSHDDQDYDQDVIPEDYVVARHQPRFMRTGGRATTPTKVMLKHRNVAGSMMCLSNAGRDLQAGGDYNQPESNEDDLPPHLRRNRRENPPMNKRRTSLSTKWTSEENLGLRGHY
Kind of experiment: MEX-5/TCR-2 RNA interaction inhibitors, dose response, biochemical, C. elegans, fluorescence polarization (AID 1960). (In general: Fluorescence polarisation rises when a labelled molecule tumbles more slowly, as on binding a larger partner.)

For experiment [14], the target named is T4, RNA-binding protein pos-1 (Caenorhabditis elegans, UniProt G5EF15).
T4 sequence (G5EF15 whole entry): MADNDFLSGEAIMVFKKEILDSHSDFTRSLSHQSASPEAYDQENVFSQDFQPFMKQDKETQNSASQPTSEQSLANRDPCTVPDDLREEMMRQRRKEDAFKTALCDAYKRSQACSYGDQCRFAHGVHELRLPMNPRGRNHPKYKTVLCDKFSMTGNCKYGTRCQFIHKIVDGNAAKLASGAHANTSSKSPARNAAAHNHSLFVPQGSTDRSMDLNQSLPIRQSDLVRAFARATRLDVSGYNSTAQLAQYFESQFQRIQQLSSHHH
Kind of experiment: inhibitors of POS-1/mex-3 RNA binding, dose response, biochemical, fluorescence polarization (AID 1964).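 Further: purified POS-1 fused to maltose binding protein made in E. coli; potency of compounds blocking POS-1 binding to fluorescent RNA.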

Experiment [15] has as its target T1, Heat shock factor protein 1. Kind of experiment: inhibition of MG132-induced HSE-luciferase signal, confirmation, cell-based, NIH3T3, luminescence, dose retest (AID 2382).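 Further: NIH3T3 fibroblasts with HSF1-driven luciferase reporter stressed by proteasome inhibitor MG132; luminescence from HSF1-driven luciferase expression after 8 hours of MG132 stress.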 The experiment is classed as functional.

Sequence of Luciferin 4-monooxygenase (P08659 whole entry): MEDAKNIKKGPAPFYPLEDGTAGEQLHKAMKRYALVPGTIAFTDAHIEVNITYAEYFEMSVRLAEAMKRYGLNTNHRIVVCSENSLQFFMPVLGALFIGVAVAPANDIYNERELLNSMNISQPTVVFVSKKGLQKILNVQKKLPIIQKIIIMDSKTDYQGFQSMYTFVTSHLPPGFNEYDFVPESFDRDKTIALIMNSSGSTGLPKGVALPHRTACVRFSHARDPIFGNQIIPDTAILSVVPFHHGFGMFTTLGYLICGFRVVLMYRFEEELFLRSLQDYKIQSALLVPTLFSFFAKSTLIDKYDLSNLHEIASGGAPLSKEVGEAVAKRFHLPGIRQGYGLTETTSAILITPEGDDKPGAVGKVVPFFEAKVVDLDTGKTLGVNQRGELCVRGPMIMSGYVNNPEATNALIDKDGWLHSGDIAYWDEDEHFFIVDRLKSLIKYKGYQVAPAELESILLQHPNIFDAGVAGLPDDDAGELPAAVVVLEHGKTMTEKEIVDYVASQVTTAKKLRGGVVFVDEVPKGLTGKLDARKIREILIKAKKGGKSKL
Sequence of Large T antigen (P03070 whole entry): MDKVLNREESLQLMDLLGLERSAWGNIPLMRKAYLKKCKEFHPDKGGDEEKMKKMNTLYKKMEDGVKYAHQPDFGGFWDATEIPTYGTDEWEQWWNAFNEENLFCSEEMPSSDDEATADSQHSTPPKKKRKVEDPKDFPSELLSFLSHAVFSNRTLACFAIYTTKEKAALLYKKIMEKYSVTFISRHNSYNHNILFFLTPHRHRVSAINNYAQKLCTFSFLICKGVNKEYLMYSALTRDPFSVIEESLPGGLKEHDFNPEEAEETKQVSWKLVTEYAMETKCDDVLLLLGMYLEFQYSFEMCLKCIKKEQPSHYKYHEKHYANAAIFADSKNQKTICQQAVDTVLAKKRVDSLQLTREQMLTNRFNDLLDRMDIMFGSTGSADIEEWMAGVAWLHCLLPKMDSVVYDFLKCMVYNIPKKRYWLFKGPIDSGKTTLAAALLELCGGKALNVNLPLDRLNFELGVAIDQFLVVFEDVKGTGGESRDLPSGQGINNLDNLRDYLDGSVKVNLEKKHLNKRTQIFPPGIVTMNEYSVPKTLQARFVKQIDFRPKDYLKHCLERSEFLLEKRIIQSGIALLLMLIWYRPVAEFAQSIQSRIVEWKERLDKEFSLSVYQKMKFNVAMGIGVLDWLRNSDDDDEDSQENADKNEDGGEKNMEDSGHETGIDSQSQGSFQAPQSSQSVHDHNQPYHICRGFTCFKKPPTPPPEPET

Take `Cc1ccc(S(=O)(=O)Nc2ccc3c(c2)C(=O)N([C@H](C)CO)C[C@H](C)[C@H](CN(C)Cc2ccc(C(F)(F)F)cc2)OCCCC[C@@H](C)O3)cc1`: in experiment [1], the AC50 (as a rule, the concentration giving half of the maximal activity seen) is 3.01 µM (active).
In the case of `C[C@H](CO)N1C[C@H](C)[C@H](CN(C)C(=O)Nc2ccc(C(F)(F)F)cc2)Oc2c(NC(=O)c3nc4ccccc4s3)cccc2C1=O`, the AC50 in experiment [1] was 2.35 µM (active).
Turning to `CCOC(=O)c1ccc(N2C(=O)CC(N3CCC(Nc4ccc(F)cc4)CC3)C2=O)cc1` (configuration not stated), the AC50 in experiment [2] is 3.01 µM (active). In addition, the EC50 (in general, the concentration that produces a half-maximal response) in experiment [3] was > 260 µM (inactive).
Take `O=C(CSc1nc2ccccc2c(=O)n1-c1ccccc1)N1CCc2ccccc2C1`: in the experiment on INS1, the AC50 was 3.61 µM (active).
For `C[C@H](CO)N1C[C@H](C)[C@H](CN(C)Cc2ccc3c(c2)OCO3)Oc2c(NC(=O)Nc3ccc(C(F)(F)F)cc3)cccc2C1=O`, in experiment [1], the concentration at half-maximal activity (AC50) was 0.956 µM (active).
As to `CC1=Nc2cc(C(=O)NCCCOC(C)C)ccc2Sc2ccc(C)cc21`, the EC50 with BJ [4] was 3.85 µM (inconclusive); in the experiment on BJ [5], 2.75 µM (active); with BJ [6] it was 2.72 µM (active); in experiment [7], 2.86 µM (active).
As to `C[C@H](CO)N1C[C@H](C)[C@@H](CN(C)Cc2ccc(C(=O)Nc3ccccc3N)cc2)Oc2c(NC(=O)c3cnccn3)cccc2C1=O`, the AC50 in experiment [1] is 2.45 µM (active).
For `CCN(CC)S(=O)(=O)c1cc(OCC(N)=O)c(C)cc1Cl`, the EC50 in [8] and in [9] was > 112 µM (not active) in each case.
As to `CN(C)CCCNC(=O)C(=O)NCC1OCCN1S(=O)(=O)c1cccs1` (configuration not stated), the IC50 (commonly the concentration that gives 50% inhibition) in [10] was > 20 µM (inactive).
Consider `CCc1ccc(-c2cc3c(=O)n(CC(=O)NCCCN4CCC(Cc5ccccc5)CC4)nc(C)n3n2)cc1`, for which the IC50 in experiment [10] was > 20 µM (inactive).
Take `Cc1ccc(S(=O)(=O)NCC23C=CC(O2)C2C(=O)N(c4ccccc4)C(=O)C23)cc1` (configuration not stated): in experiment [2], the AC50 is 17.7 µM (active).
Consider `O=C(Nc1nccs1)C1CCN(S(=O)(=O)c2ccc(F)cc2)CC1`, for which the EC50 in [8] is > 112 µM (not active); in experiment [9], 18.6 µM (active).
On to `O=C(Nc1ccc(F)cc1)C1CCCCC1`, for which the EC50 in experiment [8] and in experiment [9] was > 112 µM (not active) each time.
`CCn1c(CNc2ccc(Cl)cc2)nnc1SCc1ccccc1`: in experiment [2], the AC50 is 1.57 µM (active).
Consider `N#Cc1ccsc1NC(=O)C1CCN(C(=O)c2ccc(F)cc2)CC1`, for which, in experiment [10], the IC50 is > 20 µM (inactive).
As for `C[C@@H]1CN([C@@H](C)CO)C(=O)c2cccc(NC(=O)CCCCCC(=O)Nc3ccccc3N)c2O[C@@H]1CN(C)Cc1ccc(Cl)c(Cl)c1`, the AC50 in experiment [1] is 2.51 µM (active).
Take `FC(F)(F)c1cc(CCN2CCNC[C@@H]2c2ccccc2)cc(C(F)(F)F)c1`: the IC50 in [10] is > 20 µM (inactive).
Take `Cc1noc(/C=C/c2ccccn2)c1[N+](=O)[O-]`: the concentration for a half-maximal effect (EC50) with BJ [4] was 24.5 µM (inconclusive); in experiment [11], 2.97 µM (active); in experiment [12], 3.04 µM (inconclusive); in the experiment on BJ [5], 9.6 µM (active); with BJ [6], 8.5 µM (active); in [7], 9.44 µM (active).
For `CCOc1ncccc1C(=O)N1CCN(c2cccc(C)c2C)CC1`, the EC50 is 37.3 µM (inconclusive) in the experiment with BJ [4], 0.349 µM (inconclusive) in the experiment with BJ [5], 0.541 µM (active) in the experiment on BJ [6] and 0.458 µM (active) in experiment [7].
Consider `COc1ccc(C(CNC(=O)c2ccc(-c3nc4ccccc4s3)o2)N2CCCC2)cc1` (configuration not stated), for which the IC50 in [10] was > 20 µM (inactive).
Turning to `Cc1ccc(C(=O)N/C(=C\c2ccc(-c3ccccc3[N+](=O)[O-])o2)C(=O)NCCCN2CCOCC2)cc1`, the AC50 with INS1 was 6.33 µM (active).
With `COc1ccc(C(=O)N2CCCc3ccccc32)cc1`, the EC50 in [8] and in experiment [9] was > 112 µM (not active) in each case.
For `CCNc1nc(NC#N)nc(SCC(=O)OCC)n1`, the EC50 in experiment [8] and in [9] was > 112 µM (not active) throughout.
On to `C[C@@H]1CN([C@H](C)CO)C(=O)c2cccc(NS(=O)(=O)c3ccc(Cl)cc3)c2O[C@@H]1CN(C)Cc1ccccc1`, for which, in experiment [1], the AC50 is 20 µM (inactive).
Take `C/N=C1\S/C(=C\c2ccc(O)c(OC)c2)C(=O)N1C`: the IC50 at Large T antigen is 11.1 µM (active). Moreover, the EC50 in [13] and in experiment [14] was > 300 µM (not active) in each case.
On to `Cc1ccc(C(=O)NCCCNCCCN(C)C)cn1`, for which, in experiment [10], the IC50 was > 20 µM (inactive).
Turning to `C[C@H](CO)N1C[C@H](C)[C@@H](CN(C)Cc2ccc(C(F)(F)F)cc2)Oc2c(NC(=O)Nc3ccc(F)cc3)cccc2C1=O`, in experiment [1], the half-maximal activity concentration (AC50) is 5.99 µM (active).
As to `Cc1ccc(/C=N/NC(=O)c2csc3c2CCCC3)cc1`, the EC50 was 54.1 µM (active) in the experiment with BJ [4], 93.4 µM (active) in the experiment with BJ [5], 2.46 µM (active) in the experiment on BJ [6] and 1.9 µM (active) in [7].
Turning to `COc1cc(/C=N/NC(N)=O)ccc1OCC(=O)N1C(C)CCCC1C` (configuration not stated), the EC50 is > 112 µM (not active) in experiment [8] and 5.74 µM (active) in experiment [9].
As for `CSc1ccc(/C=C2\C(=N)N3N=C(CC(=O)N4CCOCC4)SC3=NC2=O)cc1`, the 50% effective concentration (EC50) in experiment [8] and in experiment [9] was > 112 µM (not active) each time.
With `COc1ccc(S(=O)(=O)Nc2ccc3c(c2)CC(=O)N([C@H](C)CO)C[C@@H](C)[C@H](CN(C)CC2CCCCC2)O3)cc1`, in [1], the AC50 was 2.97 µM (active).
As for `COc1ccc(N2CCN(CCCn3c(=S)[nH]c4ncccc4c3=O)CC2)cc1`, the EC50 with BJ [4] was 44.2 µM (active); in [15], > 195 µM (not active); with BJ [5] it was > 150 µM (not active); with BJ [6], > 150 µM (not active); in experiment [7] it was 58.9 µM (active).
Regarding `O=c1cc(CN2CCN(c3ccccc3O)CC2)nc2sccn12`, the figures for the EC50 in experiment [8] and in experiment [9] were > 112 µM (not active) and 53.2 µM (active), respectively.
